Measurements taken from patent US20260042755A1, “GPR6 INVERSE AGONISTS” (MapLight Therapeutics, Inc., priority 2022, published 2026).

How the values were obtained:
GPR3 = biological target: T1, GPR3 (Homo sapiens, UniProt P46089); test: GPR3 antagonist functional cAMP assay (LANCE Ultra cAMP TR-FRET, CHO cells stably expressing GPR3); format: cell-based; details: CHO cells stably expressing GPR3, cAMP assay (Example 24)
T1 construct: expressed in transfected cells; host or cells: CHO cells
Summary of the method: (§1)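 We measure cAMP by TR-FRET (665 nm) in cells held in glucose-containing Krebs-Ringer buffer with BSA and a PDE inhibitor, after a 45 min, 37 °C compound incubation. IC50s derive from a four-parameter logistic fit.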

GPR6 = biological target: T2, GPR6 (Homo sapiens, UniProt P46095); test: GPR6 antagonist functional cAMP assay (LANCE Ultra cAMP TR-FRET, CHO cells stably expressing GPR6); format: cell-based; details: CHO cells stably expressing GPR6, cAMP assay (Example 24)
T2 construct: expressed in transfected cells; host or cells: CHO cells
Summary of the method: as §1

T2 sequence (P46095 whole entry): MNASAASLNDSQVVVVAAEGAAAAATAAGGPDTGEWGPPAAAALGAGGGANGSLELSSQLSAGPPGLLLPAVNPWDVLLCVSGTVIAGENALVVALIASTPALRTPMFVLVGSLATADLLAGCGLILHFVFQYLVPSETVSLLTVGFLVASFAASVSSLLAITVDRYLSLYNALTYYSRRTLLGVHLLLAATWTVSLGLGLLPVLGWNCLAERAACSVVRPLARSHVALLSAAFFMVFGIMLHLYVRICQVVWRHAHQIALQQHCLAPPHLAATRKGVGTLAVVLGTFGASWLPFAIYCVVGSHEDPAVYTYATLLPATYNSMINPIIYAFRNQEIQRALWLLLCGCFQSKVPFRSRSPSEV
T1 sequence (P46089 whole entry, species assumed): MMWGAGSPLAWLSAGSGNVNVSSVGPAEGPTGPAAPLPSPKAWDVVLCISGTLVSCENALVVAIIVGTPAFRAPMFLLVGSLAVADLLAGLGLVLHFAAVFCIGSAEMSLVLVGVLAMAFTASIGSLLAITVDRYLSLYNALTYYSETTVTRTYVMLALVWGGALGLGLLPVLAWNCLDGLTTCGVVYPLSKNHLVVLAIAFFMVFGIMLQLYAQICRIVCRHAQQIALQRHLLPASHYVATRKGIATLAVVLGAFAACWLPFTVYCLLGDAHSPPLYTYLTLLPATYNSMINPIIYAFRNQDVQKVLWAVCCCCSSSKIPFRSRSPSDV

Row | Structure (SMILES) | IC50 (GPR3) [nM] | IC50 (GPR6) [nM]
1 | O=S(=O)(C1COC1)N1CCc2nc(N3CCC(Oc4ccc(F)cc4F)CC3)c(-c3cn[nH]c3)nc2C1 [Compound 207, 4-(2,4-difluorophenoxy)-1-[6-(oxetane-3-sulfonyl)-3-(1H-pyrazol-4-yl)-5H,6H,7H,8H-pyrido[3,4-b]pyrazin-2-yl]piperidine] | 1000 to 30000 | 1000 to 30000
2 | CC(=O)N1CCc2nc(N3CCC(Oc4ccc(F)cc4F)CC3)c(-c3cnn(C(C)C#N)c3)nc2C1 (stereo not drawn) [Compound 208, 2-(4-{6-acetyl-2-[4-(2,4-difluorophenoxy)piperidin-1-yl]-5H,6H,7H,8H-pyrido[3,4-b]pyrazin-3-yl}-1H-pyrazol-1-yl)propanenitrile] | 1000 to 30000 | 100 to 1000
3 | CC(=O)N1CCc2nc(N3CCC(Oc4ccc(F)cc4F)CC3)c(-c3cnn(CC4CC4)c3)nc2C1 [Compound 209, 1-{3-[1-(cyclopropylmethyl)-1H-pyrazol-4-yl]-2-[4-(2,4-difluorophenoxy)piperidin-1-yl]-5H,6H,7H,8H-pyrido[3,4-b]pyrazin-6-yl}ethan-1-one] | 1000 to 30000 | 100 to 1000
4 | CC(=O)N1CCc2nc(N3CCC(Oc4ccc(F)cc4F)CC3)c(-c3cccc(C(O)C(F)F)n3)nc2C1 (stereo not drawn) [Compound 210, 1-(3-[6-(2,2-difluoro-1-hydroxyethyl)pyridin-2-yl]-2-[4-(2,4-difluorophenoxy)piperidin-1-yl]-5H,6H,7H,8H-pyrido[3,4-b]pyrazin-6-yl)ethan-1-one] | 1000 to 30000 | 1000 to 30000
5 | Cn1cc(-c2nc3c(nc2N2CCC(Oc4ccc(F)cc4F)CC2)CCN(S(C)(=O)=O)C3)cn1 [Compound 211, 4-(2,4-difluorophenoxy)-1-[6-methanesulfonyl-3-(1-methyl-1H-pyrazol-4-yl)-5H,6H,7H,8H-pyrido[3,4-b]pyrazin-2-yl]piperidine] | 1000 to 30000 | < 100
6 | CC(=O)N1CCc2nc(N3CCC(Oc4ccc(F)cc4F)CC3)c(-c3cnn(C4CN(C)C4)c3)nc2C1 [Compound 212, 1-{2-[4-(2,4-difluorophenoxy)piperidin-1-yl]-3-[1-(1-methylazetidin-3-yl)-1H-pyrazol-4-yl]-5H,6H,7H,8H-pyrido[3,4-b]pyrazin-6-yl}ethan-1-one] | 1000 to 30000 | 1000 to 30000
7 | Cn1cc(-c2nc3cnccc3nc2N2CCN(CC3CCC(F)(F)CC3)CC2)cn1 [Compound 213, 1-[(4,4-difluorocyclohexyl)methyl]-4-[3-(1-methyl-1H-pyrazol-4-yl)pyrido[3,4-b]pyrazin-2-yl]piperazine] | 1000 to 30000 | 1000 to 30000
8 | Cn1cc(-c2nc3cnccc3nc2N2CCN(CC3CCCC(F)(F)C3)CC2)cn1 (stereo not drawn) [Compound 214, 1-[(3,3-difluorocyclohexyl)methyl]-4-[3-(1-methyl-1H-pyrazol-4-yl)pyrido[3,4-b]pyrazin-2-yl]piperazine] | 1000 to 30000 | 1000 to 30000
9 | COc1ncc(-c2nc3c(nc2N2CCC(Oc4ccc(F)cc4F)CC2)CCN(C(C)=O)C3)nc1OC [Compound 215, 1-{2-[4-(2,4-difluorophenoxy)piperidin-1-yl]-3-(5,6-dimethoxypyrazin-2-yl)-5H,6H,7H,8H-pyrido[3,4-b]pyrazin-6-yl}ethan-1-one] | 1000 to 30000 | 100 to 1000
10 | Cn1cc(-c2nc3cnc(C#N)cc3nc2N2CCN(Cc3ccc(F)cc3F)CC2)cn1 [Compound 216, 2-{4-[(2,4-difluorophenyl)methyl]piperazin-1-yl}-3-(1-methyl-1H-pyrazol-4-yl)pyrido[3,4-b]pyrazine-7-carbonitrile] | 1000 to 30000 | 100 to 1000
11 | CC(=O)N1CCc2nc(N3CCC(Oc4ccc(F)cc4F)CC3)c(C3CCC(F)(F)CC3)nc2C1 [Compound 217, 1-[3-(4,4-difluorocyclohexyl)-2-[4-(2,4-difluorophenoxy)piperidin-1-yl]-5H,6H,7H,8H-pyrido[3,4-b]pyrazin-6-yl]ethan-1-one] | 1000 to 30000 | 1000 to 30000
12 | CC(=O)N1CCc2nc(N3CCC(Oc4ccc(F)cc4F)CC3)c(C3CCS(=O)(=O)CC3)nc2C1 [Compound 218, 4-{6-acetyl-2-[4-(2,4-difluorophenoxy)piperidin-1-yl]-5H,6H,7H,8H-pyrido[3,4-b]pyrazin-3-yl}-1λ^6-thiane-1,1-dione] | 1000 to 30000 | 1000 to 30000
13 | CC(=O)N1CCc2nc(N3CCC(Oc4ccc(F)cc4F)CC3)c(C3=COCCC3)nc2C1 [Compound 219, 1-{2-[4-(2,4-difluorophenoxy)piperidin-1-yl]-3-(3,4-dihydro-2H-pyran-5-yl)-5H,6H,7H,8H-pyrido[3,4-b]pyrazin-6-yl}ethan-1-one] | ≥ 30000 | 100 to 1000
14 | CCn1cc(-c2nc3c(nc2N2CCC(Oc4ccc(F)cc4F)CC2)CCN(C(C)=O)C3)cn1 [Compound 220, 1-{2-[4-(2,4-difluorophenoxy)piperidin-1-yl]-3-(1-ethyl-1H-pyrazol-4-yl)-5H,6H,7H,8H-pyrido[3,4-b]pyrazin-6-yl}ethan-1-one] | 1000 to 30000 | < 100
15 | COC(=O)c1cc2nc(N3CCC(Oc4ccc(F)cc4F)CC3)c(-c3cncc(OC)n3)nc2cn1 [Compound 221, methyl 2-[4-(2,4-difluorophenoxy)piperidin-1-yl]-3-(6-methoxypyrazin-2-yl)pyrido[3,4-b]pyrazine-7-carboxylate] | 1000 to 30000 | 1000 to 30000
16 | CNC(=O)c1cc2nc(N3CCC(Oc4ccc(F)cc4F)CC3)c(-c3cncc(OC)n3)nc2cn1 [Compound 222, 2-[4-(2,4-difluorophenoxy)piperidin-1-yl]-3-(6-methoxypyrazin-2-yl)-N-methylpyrido[3,4-b]pyrazine-7-carboxamide] | 1000 to 30000 | 1000 to 30000
17 | CC(=O)N1CCc2nc(N3CCC(Oc4ccc(F)cc4F)CC3)c(-c3cccc(OC(F)(F)F)n3)nc2C1 [Compound 223, 1-{2-[4-(2,4-difluorophenoxy)piperidin-1-yl]-3-[6-(trifluoromethoxy)pyridin-2-yl]-5H,6H,7H,8H-pyrido[3,4-b]pyrazin-6-yl}ethan-1-one] | 1000 to 30000 | 100 to 1000
18 | Cn1cc(-c2nc3cnc(N)cc3nc2N2CCN(Cc3ccc(F)cc3F)CC2)cn1 [Compound 226, 2-{4-[(2,4-difluorophenyl)methyl]piperazin-1-yl}-3-(1-methyl-1H-pyrazol-4-yl)pyrido[3,4-b]pyrazin-7-amine] | 1000 to 30000 | < 100
19 | Cn1cc(-c2nc3cc(Cl)ncc3nc2N2CCN(Cc3ccc(F)cc3F)CC2)cn1 [Compound 227, 1-[7-chloro-2-(1-methyl-1H-pyrazol-4-yl)pyrido[3,4-b]pyrazin-3-yl]-4-[(2,4-difluorophenyl)methyl] piperazine] | 1000 to 30000 | 100 to 1000
20 | Cc1cc2nc(N3CCC(Oc4ccc(F)cc4F)CC3)c(-c3cnn(C)c3)nc2cn1 [Compound 228, 4-(2,4-difluorophenoxy)-1-[7-methyl-3-(1-methyl-1H-pyrazol-4-yl)pyrido[3,4-b]pyrazin-2-yl]piperidine] | 1000 to 30000 | 100 to 1000
21 | O=C1CC(N2CCc3nc(N4CCC(Oc5ccc(F)cc5F)CC4)c(-c4cn[nH]c4)nc3C2)CN1 (stereo not drawn) [Compound 229, 4-{2-[4-(2,4-difluorophenoxy)piperidin-1-yl]-3-(1H-pyrazol-4-yl)-5H,6H,7H,8H-pyrido[3,4-b]pyrazin-6-yl}pyrrolidin-2-one] | 1000 to 30000 | 1000 to 30000
